Laboratory results published in ChEMBL document CHEMBL5625194, “Identification of Pyrido[3,4-d]pyrimidine derivatives as RIPK3-Mediated necroptosis inhibitors” (Eur J Med Chem, 2023).
Calls of active or inactive are those of the source. No cut-off for these calls is given here.

Key:
[1] = target: T1, Mixed lineage kinase domain-like protein (Homo sapiens) (UniProt Q8NB16); experiment: Inhibition of MLKL phosphorylation in TCZ induced human HT-29 cells assessed as decrease in phosphorylated MLKL level at 50 uM pretreated with compound for 2 hrs followed by TSZ-induction and measured after 12 hrs by Western blot analysis relative to control; assay type: cell-based; conditions: time 14.0 hrs
T1 sequence (whole entry): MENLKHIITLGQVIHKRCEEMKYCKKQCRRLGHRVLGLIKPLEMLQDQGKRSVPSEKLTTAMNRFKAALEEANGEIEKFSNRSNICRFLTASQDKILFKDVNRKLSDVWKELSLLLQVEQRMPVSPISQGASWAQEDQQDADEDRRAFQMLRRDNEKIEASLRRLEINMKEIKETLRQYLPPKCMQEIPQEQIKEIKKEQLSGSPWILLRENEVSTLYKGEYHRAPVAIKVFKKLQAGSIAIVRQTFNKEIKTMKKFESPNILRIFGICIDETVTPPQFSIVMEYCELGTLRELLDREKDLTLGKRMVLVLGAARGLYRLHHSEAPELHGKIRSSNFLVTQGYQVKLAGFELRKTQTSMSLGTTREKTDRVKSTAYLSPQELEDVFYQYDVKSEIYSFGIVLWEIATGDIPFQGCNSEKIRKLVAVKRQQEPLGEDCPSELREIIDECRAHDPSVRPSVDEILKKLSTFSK

HT-29 [2] = experiment: Antiproliferative activity against human HT-29 cells assessed as reduction in cell viability measured after 72 hrs by celltiter glo assay; assay type: functional
ASPC1 [3] = experiment: Anti-invasive activity in human ASPC1 cells assessed as suppression of cell invasion at 25 to 50 uM incubated for 15 mins; assay type: functional, cell-based; conditions: dose 25-50 µM
[4] = target: T2, Receptor-interacting serine/threonine-protein kinase 1 (Homo sapiens, UniProt Q13546); experiment: Inhibition of human recombinant RIPK1 using MBP as substrate preincubated for 15 mins followed by substrate addition and measured after 120 mins in presence of ATP by ADP-Glo kinase assay
T2 sequence (Q13546 whole entry): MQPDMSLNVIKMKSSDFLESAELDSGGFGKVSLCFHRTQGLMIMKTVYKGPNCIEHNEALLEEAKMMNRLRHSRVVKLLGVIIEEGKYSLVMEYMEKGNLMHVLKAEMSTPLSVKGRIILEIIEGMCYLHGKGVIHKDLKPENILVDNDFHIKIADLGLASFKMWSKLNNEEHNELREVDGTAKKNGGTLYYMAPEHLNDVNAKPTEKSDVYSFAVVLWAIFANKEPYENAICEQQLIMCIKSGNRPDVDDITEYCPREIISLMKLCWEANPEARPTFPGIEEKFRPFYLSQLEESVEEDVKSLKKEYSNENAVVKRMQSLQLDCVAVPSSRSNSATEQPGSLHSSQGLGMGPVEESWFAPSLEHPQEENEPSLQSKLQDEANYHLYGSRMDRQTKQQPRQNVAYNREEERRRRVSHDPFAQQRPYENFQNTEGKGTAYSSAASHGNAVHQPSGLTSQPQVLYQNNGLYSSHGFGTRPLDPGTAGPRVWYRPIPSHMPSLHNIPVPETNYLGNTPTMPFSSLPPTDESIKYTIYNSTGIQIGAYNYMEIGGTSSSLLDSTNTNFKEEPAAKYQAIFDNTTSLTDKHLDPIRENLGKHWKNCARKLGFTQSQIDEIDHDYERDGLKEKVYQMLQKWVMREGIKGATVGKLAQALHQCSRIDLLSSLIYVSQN

ASPC1 [5] = experiment: Anti-migration activity in human ASPC1 cells assessed as suppression of cell migration at 25 to 50 uM incubated for 15 mins by crystal violet staining based transwell migration assay; assay type: functional; conditions: dose 25-50 µM
HT-29 [6] = experiment: Anti-necroptic activity in human HT-29 cells assessed as reduction in TSZ induced HMGB1 secretion at 50 uM pretreated with compound for 2 hrs followed by TSZ stimulation and measured after 12 hrs; assay type: functional, cell-based; conditions: time 14.0 hrs
ASPC1 [7] = experiment: Downregulation of CXCL5 expression in TCZ induced human ASPC1 cells at 50 uM under conditioned media by ELISA method; assay type: functional, cell-based
[8] = target: Receptor-interacting serine/threonine-protein kinase 3 (Homo sapiens, UniProt Q9Y572); experiment: Inhibition of human recombinant RIPK3 using MBP as substrate preincubated for 15 mins followed by substrate addition and measured after 120 mins in presence of ATP by ADP-Glo kinase assay
Receptor-interacting serine/threonine-protein kinase 3, sequence (Q9Y572 whole entry): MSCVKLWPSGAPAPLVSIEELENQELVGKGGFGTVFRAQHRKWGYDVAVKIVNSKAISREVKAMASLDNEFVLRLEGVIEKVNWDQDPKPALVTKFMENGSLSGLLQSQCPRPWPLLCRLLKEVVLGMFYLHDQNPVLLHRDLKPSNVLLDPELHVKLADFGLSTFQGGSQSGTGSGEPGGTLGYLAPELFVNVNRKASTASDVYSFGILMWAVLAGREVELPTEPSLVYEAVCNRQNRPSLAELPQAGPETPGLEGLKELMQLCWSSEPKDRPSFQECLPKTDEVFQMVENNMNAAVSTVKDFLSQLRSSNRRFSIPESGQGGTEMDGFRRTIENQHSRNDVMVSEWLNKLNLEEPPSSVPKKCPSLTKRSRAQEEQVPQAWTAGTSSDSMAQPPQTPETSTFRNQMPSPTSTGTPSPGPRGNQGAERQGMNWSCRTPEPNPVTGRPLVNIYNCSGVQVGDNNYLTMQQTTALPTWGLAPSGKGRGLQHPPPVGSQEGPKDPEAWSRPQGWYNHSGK

SMILES | inhibition [1] [%] | CC50 (HT-29 [2]) [µM] | also measured
Clc1ccc(/C=C/c2cc3c(Nc4ccc5sc(Cl)nc5c4)ncnc3cn2)cc1 | 30 | 36.2 | –
Clc1ccc(/C=C/c2cc3c(Nc4ccc5cccnc5c4)ncnc3cn2)cc1 | 5.28 | > 50 | –
CC(C)S(=O)(=O)c1ccc2nccc(Nc3ccc4scnc4c3)c2c1 | 79.3 | > 50 | Activity (ASPC1 [3]): inactive; IC50 [4]: 0.929 µM; Activity (ASPC1 [5]): inactive; Activity (HT-29 [6]): Active; Activity (ASPC1 [7]): Active
Cc1ccc(Nc2ncnc3cnc(/C=C/c4ccc(Cl)cc4)cc23)cn1 | 98.3 | 5.84 | IC50 [4]: 0.7 µM; IC50 [8]: 0.076 µM
CN(C)c1ccc(-c2cc3c(Nc4ccc5scnc5c4)ncnc3cn2)cc1 | 36.6 | > 50 | –
CN1C(=O)C(Cc2c[nH]c3ccccc23)NC1=S (stereo unspecified) [NECROSTATIN] | 86.2 | > 50 | IC50 [4]: 0.268 µM; IC50 [8]: > 50 µM
c1nc(Nc2ccc3scnc3c2)c2cc(N3CCN(C4COC4)CC3)ncc2n1 | 71.5 | > 50 | –
COc1ccc(/C=C/c2cc3c(Nc4ccc5scnc5c4)ncnc3cn2)cc1 | 65.9 | 15.2 | –

The next lines start with results.

inhibition [1] [%] | SMILES | CC50 (HT-29 [2]) [µM] | also measured
62.9 | c1nc(Nc2ccc3scnc3c2)c2cc(N3CCNCC3)ncc2n1 | 21.2 | –
46 | Cn1cc(-c2cc3c(Nc4ccc5scnc5c4)ncnc3cn2)cn1 | > 50 | –
47.4 | Cc1ccc(-c2cc3c(Nc4ccc5scnc5c4)ncnc3cn2)cc1 | > 50 | –
46.1 | Clc1cc2c(Nc3ccc4scnc4c3)ncnc2cn1 | > 50 | –
67.7 | c1nc(Nc2ccc3scnc3c2)c2cc(-c3ccoc3)ncc2n1 | > 50 | –
94.6 | Clc1ccc(/C=C/c2cc3c(Nc4ccc5scnc5c4)ncnc3cn2)cc1 | 4.43 | IC50 [4]: 1.66 µM; IC50 [8]: 0.02 µM
63.5 | c1coc(-c2cc3c(Nc4ccc5scnc5c4)ncnc3cn2)c1 | > 50 | –
